Laboratory results reported in PubChem BioAssay AID1963845 (Molecular Pharmacology Branch, DTP, NCI, 2024).
Where “and” joins values, the source holds several entries; their conditions need not be identical. Equal entries are not always repeated.

Test system: 429239-143-T-J1-PDC complex spheroid viability
Test: Anticancer human tumor 429239-143-T-J1-PDC patient-derived small cell lung carcinoma cell line growth inhibition [POLQ]
Details: for viability, T/C: stronger effect = lower value
Procedure: Multicellular complex tumor spheroid response to Polymerase (POL) inhibitors (novobiocin, ART-558, RP6685) in combination with a variety of drugs and investigational agents in selected tumor cell lines
The POL inhibitors (novobiocin, ART-558, and RP6685) were evaluated both individually and in combination with standard of care and investigational anticancer small molecules within a complex spheroid model of solid tumors. . Complex spheroids include a stromal component modeled by human endothelial cells (HUVEC) and fibroblasts modeled by human mesenchymal stem cells (MSCs). The concentration ranges selected for each drug and investigational agent were based upon clinically achievable concentrations if the clinical Cmax of the agent was known.
Compounds. The drugs and investigational agents: novobiocin (NSC847541), ART-558 (NSC835418), RP-6685 (NSC848927), peposertib (NSC802822), ceralasertib (NSC780249), elimusertib (NSC800525), camonsertib (NSC841442), AZD-1390 (NSC803789), olaparib (NSC753686), talazoparib (NSC767125), rucaparib (NSC756644), sotorasib (NSC818433), MRTX-1133 (NSC836407), SN-38 (NSC673596), topotecan (NSC609699), epotoside (NSC141540), doxorubicin (NSC123127), gemcitabine (NSC613327), 5-fluorouracil (NSC19893), paclitaxel (NSC125973), vemurafenib (NSC761431), MSA-2 (NSC828583), SN-011 (NSC837082), adavosertib (NSC754352), prexasertib (NSC758257), carboplatin (NSC241240) and oxaliplatin (NSC266046), were obtained from the National Cancer Institute (NCI) Developmental Therapeutics Program Chemical Repository (21). The FDA-approved anticancer drug set is available from the Developmental Therapeutics Program at https://dtp.cancer.gov/organization/dscb/obtaining/. […] The stock solutions were prepared in dimethyl sulfoxide (DMSO, Sigma-Aldrich, St. Louis, MO, cat. D2650), except for the platinum compounds which were prepared in saline (Quality Biological, Gaithersburg, MD, cat. 114-055-101), at 800-fold the tested concentration and stored at -70 degrees C prior to their use. All drugs and investigational agents were tested over a range starting from a high concentration at or near the clinical Cmax and decreasing in half-log increments. If the clinical Cmax for an agent had not been determined, the highest concentration tested was 10 microM, except for SN-38, which was tested at a high concentration of 1 microM.
Cell Culture. All cells were maintained in an incubator at 37 degrees C and 5% CO2 with 95% humidity. The PDC lines were cultured according to standard operating procedures established by the NCI PDMR (https://pdmr.cancer.gov). Table 3 of the manuscript, lists the cell lines along with the number of the three cell types plated to form the mct-spheroids and media for tumor cell growth. After thawing, all PDC lines, except 997537-175-T-J1-PDC and 415267-285-R-J2-PDC, were cultured in Matrigel-coated flasks prepared with a working solution of 1X Ham's F-12 nutrient mix, without supplementation (Thermo Fisher Scientific, cat. 11765054), 100 U/mL penicillin-streptomycin (Thermo Fisher Scientific, cat. 15140122), and 2.5% Matrigel (Corning Inc., Corning, NY, cat. 354248) for the first three passages. The two PDC lines 997537-175-T-J1-PDC and 415267-285-R-J2-PDC were cultured on uncoated flasks. The 857933-349-R-J2-PDC line was cultured in 6C/Colon 1B media containing advanced DMEM/F-12 (Thermo Fisher Scientific, cat. 12634028), 10 mM HEPES (Thermo Fisher Scientific, cat. 15630080), 1X GlutaMAX supplement (Thermo Fisher Scientific, cat. 35050061), 0.1 mg/mL primocin (InvivoGen, San Diego, CA, cat. ant-pm-2), 10% defined fetal bovine serum, heat inactivated (HyClone Laboratories Inc., Logan, UT, cat. SH30070.03HI), 50% L-WRN conditioned media (ATCC, cat. CRL-3276), 1.25 mM N-Acetyl-L-cysteine (Sigma-Aldrich, cat. A9165), 10 mM nicotinamide (Sigma-Aldrich, cat. N0636), 1X B-27 supplement (Thermo Fisher Scientific, cat. 17504044), 1X N-2 supplement (Thermo Fisher Scientific, cat. […]

[1] = compound alone, run of 01/08/2024
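Further: luminescence signal used as surrogate measure of viable cells; spheroids exposed to compounds for seven days before readout.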
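Wherever viability, T/C is given: 100% = DMSO vehicle control viability as luminescence relative to vehicle.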

IC50 (compound alone, run of 01/19/2024) [nM] | Structure (SMILES) | viability, T/C (compound 0.0316 µM) | viability, T/C (compound 0.1 µM) | viability, T/C (compound 0.316 µM) | viability, T/C (compound 1 µM) | viability, T/C (compound 3.16 µM) | viability, T/C (compound 10 µM) | IC50 (curve of compound) | IC50 [1] [nM] | viability, T/C (compound 0.00316 µM) | viability, T/C (compound 0.01 µM)
– | COc1cccc2c1C(=O)c1c(O)c3c(c(O)c1C2=O)CC(O)(C(=O)CO)CC3OC1CC(N)C(O)C(C)O1 (stereo not given) | 64.3% and 87.3% and 71.1% | 12.8% and 42.3% and 14.2% | 11.6% and 7.66% and 13.1% | 0.3% and 0.77% and 0.76% | 0.21% and 0.16% and 0.18% | 0.24% and 0.16% and 0.14% | 44.1 nM and 82.1 nM and 49.7 nM | – | – | –
– | COc1cc(C2c3cc4c(cc3C(OC3OC5COC(C)OC5C(O)C3O)C3COC(=O)C23)OCO4)cc(OC)c1O (stereo not given) | 99.3% and 97.8% and 98.3% | 83.6% and 97.1% and 85.7% | 67.2% and 76.3% and 51.2% | 21% and 16.1% and 18% | 18.4% and 7.9% and 16% | 16.8% and 7.28% and 16.6% | 483 nM and 523 nM and 313 nM | – | – | –
– | COc1cc2cc(C(=O)CCC(=O)O)sc2cc1OC | 92.3% and 91.8% and 112% | 105% and 102% and 92.5% | 94.3% and 97.6% and 97.8% | 108% and 109% and 97.7% | 108% and 107% and 97.8% | 97.3% and 104% and 87.3% | > 10000 nM | – | – | –
– | C#Cc1c(F)ccc2cc(O)cc(-c3ncc4c(N5CC6CCC(C5)N6)nc(OCC56CCCN5CC(F)C6)nc4c3F)c12 (stereo not given) | 92.4% and 94.3% and 101% | 91.3% and 103% and 102% | 114% and 102% and 96% | 99% and 112% and 102% | 102% and 97.4% and 98.6% | 84.1% and 91.3% and 103% | > 10000 nM | – | – | –
> 10000 | Cc1cccc(N(C)C(=O)C2C(O)CCN2c2nc(C)cc(C(F)(F)F)c2C#N)c1 (stereo not given) | 103% [middle of 13 runs] | 102% [middle of 13 runs] | 98% [middle of 13 runs] | 100% [middle of 13 runs] | 104% [middle of 13 runs] | 106% [middle of 13 runs] | – | > 10000 | – | –
– | CC1COCCN1c1cc(C2(O)CC3CCC(C2)O3)c2cnn(-c3ccn[nH]3)c2n1 (stereo not given) | 67.2% and 61.1% and 90.8% | 45.3% and 34.4% and 78.8% | 17.6% and 17% and 52.5% | 10.2% and 7.95% and 6.96% | 9.58% and 7.43% and 2.96% | 4.72% and 5.39% and 2.25% | 77.6 nM and 51 nM and 324 nM | – | – | –
– | COC1C(OC(N)=O)C(O)C(Oc2ccc3c(O)c(NC(=O)c4ccc(O)c(CC=C(C)C)c4)c(=O)oc3c2C)OC1(C)C (stereo not given) | 99.8% [middle of 13 runs] | 101% [middle of 13 runs] | 100% [middle of 13 runs] | – | 99.4% [middle of 13 runs] | – | – | > 10000 | – | –
– | COc1cccc(OCCCN)c1-c1cc(Nc2cnc(C#N)cn2)n[nH]1 | 82.9% and 83.9% and 89.2% | 39.7% and 73.7% and 77.4% | 31% and 56.7% and 51.6% | 23% and 27% and 41.3% | – | – | 76.2 nM and 390 nM and 384 nM | – | 92% and 99.1% and 90.2% | 79.7% and 103% and 100%
